Patent publication US9969698B2, “Quinoxalinyl-piperazinamide methods of use” (REXAHN PHARMACEUTICALS, INC., priority 2015, dated 2018)

What was measured:
[1] = biological target: CYP3A4 (Homo sapiens, UniProt P08684); assay: Loss of RX-5902 after incubation with expressed CYP450 isozyme; type: in vitro ADME; details: 30-minute incubation with expressed CYP3A4
Protocol: (§1) Two in vitro studies were performed to examine the involvement of specific cytochrome P450 (CYP450) isozymes in the in vitro metabolism of RX-5902. In the first study, the loss of RX-5902 was measured after incubation with expressed CYP450 isozymes (1A2, 2A6, 2B6, 2C8, 2C9, 2C19, 2D6, 3A4 and 3A5). […] In the second study, RX-5902 was incubated with pooled human liver microsomes in the presence of CYP450 isozyme-selective chemical inhibitors. The inhibitors tested were selective for 1A2, 2A6, 2B6, 2C8, 2C9, 2C19, 2D6, and 3A4/5.

[2] = biological target: CYP3A5 (Homo sapiens, UniProt P20815); assay: as above; type: in vitro ADME; details: 30-minute incubation with expressed CYP3A5
CYP3A5, sequence (P20815 whole entry): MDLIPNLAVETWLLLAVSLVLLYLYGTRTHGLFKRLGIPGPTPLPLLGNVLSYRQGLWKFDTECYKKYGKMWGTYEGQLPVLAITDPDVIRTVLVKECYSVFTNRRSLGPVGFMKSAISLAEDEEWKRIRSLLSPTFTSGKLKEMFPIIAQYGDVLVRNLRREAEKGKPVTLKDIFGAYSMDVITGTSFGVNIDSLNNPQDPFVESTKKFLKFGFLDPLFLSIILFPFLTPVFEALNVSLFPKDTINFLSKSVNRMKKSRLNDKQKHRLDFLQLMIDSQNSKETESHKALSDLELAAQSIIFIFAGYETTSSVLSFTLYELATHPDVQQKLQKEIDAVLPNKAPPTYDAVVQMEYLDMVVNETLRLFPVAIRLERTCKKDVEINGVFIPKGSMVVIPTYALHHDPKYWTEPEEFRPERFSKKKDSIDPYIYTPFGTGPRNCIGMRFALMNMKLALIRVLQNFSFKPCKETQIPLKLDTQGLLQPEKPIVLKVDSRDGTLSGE
Protocol: as §1

[3] = tested on: CYP450 isozymes 1A2, 2A6, 2B6, 2C8, 2C9, 2C19, 2D6; assay: Loss of RX-5902 after incubation with other expressed CYP450 isozymes; type: in vitro ADME; details: 30-minute incubation with any other CYP isozyme
Protocol: as §1

[4] = biological target: T1, p68 RNA helicase (Homo sapiens, UniProt P17844); assay: DARTS target identification (thermolysin protection, Western blot); type: cell-based; details: MDA-MB-231 cells treated 0.1-10 μM for one hour
T1 construct: made in house
T1 sequence (P17844 whole entry): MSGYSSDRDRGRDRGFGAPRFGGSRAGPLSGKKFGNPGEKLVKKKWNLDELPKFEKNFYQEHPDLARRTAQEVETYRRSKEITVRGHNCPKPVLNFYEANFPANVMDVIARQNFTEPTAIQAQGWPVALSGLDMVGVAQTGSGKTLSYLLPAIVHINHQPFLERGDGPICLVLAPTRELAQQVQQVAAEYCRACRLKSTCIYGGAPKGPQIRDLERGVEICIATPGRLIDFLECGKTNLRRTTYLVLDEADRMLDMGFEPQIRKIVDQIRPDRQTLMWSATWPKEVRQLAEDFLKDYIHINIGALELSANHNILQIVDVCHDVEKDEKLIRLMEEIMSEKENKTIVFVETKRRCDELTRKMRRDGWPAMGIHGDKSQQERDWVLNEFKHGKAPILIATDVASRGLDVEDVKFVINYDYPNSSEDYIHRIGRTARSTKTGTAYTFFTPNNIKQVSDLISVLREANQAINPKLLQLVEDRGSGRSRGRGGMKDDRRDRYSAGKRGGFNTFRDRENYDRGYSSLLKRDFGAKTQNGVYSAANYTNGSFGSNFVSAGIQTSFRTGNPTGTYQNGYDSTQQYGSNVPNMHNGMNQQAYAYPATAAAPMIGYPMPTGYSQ
Protocol: MDA-MB-231 cells were plated onto 6 well plates and treated with RX-5902 at various concentrations (0, 0.1, 1 and 10 μM) for one hour. Cells were lysed with p-MER buffer containing protease/phosphatase inhibitors on ice. Cell lysates were treated with thermolysin protease (1:1,500 ratio) for 10 min at RT and the reaction was stopped by addition of 0.5 M EDTA solution. The reaction mixtures were separated on a 10% SDS-PAGE visualized by Coomassie staining. After identifying several candidate proteins from mass spectrometry sequencing analysis, the protein which interacted with RX-5902 was confirmed by western blot analysis.
Protein mix or cell lysates were separated by SDS-PAGE and transferred to PVDF membrane. The membrane was blocked by blocking buffer (1×TBST containing 5% BSA) at room temperature for 1 hour. After a brief wash, the membrane was incubated with primary antibody in blocking buffer at 4° C. overnight. […]
Well-established target identification method DARTS assay (Lomenick et al., Proc. Natl. Acad. Sci. USA, 106:21984-21989 (2009)) was used to find target proteins that would interact with RX-5902 in cancer cells. […] To identify this protected protein, the bands along with control were sliced out, and analyzed with LC-MS/MS by ProtTech (Phoenixville, Pa.). […]

[5] = tested on: SK-MEL-28 cells; assay: Western blot of cyclin D1, c-Myc and p-c-Jun; type: cell-based
Protocol: (§2) MDA-MB-231, SK-MEL-28, and WI-38 cells were obtained from ATCC (Manassas, Va., USA) and were cultured according to the vendor's instructions. Anti-p68 antibody and antiY593-p68 antibody were purchased from Cell Signaling (Danvers, Mass.) and Abcam (Cambridge, Mass.), respectively. Antibodies against β-actin, cyclin D1, p-c-Jun and c-Myc, were purchased from Santa Cruz (Dallas, Tex.). Anti-phospho-tyrosine antibody and HRP conjugated GAPDH antibody were obtained from Cell Signaling (Danvers, Mass.). Recombinant β-catenin and p68 protein were purchased from Creative Biomart (Shirley, N.Y.) and Origene (Rockville, Md.), respectively.
(§3) RX-5902 was dissolved in DMSO to prepare a stock solution of 2 mM. The stock solution was stored at −20° C. and diluted with medium to prepare working concentrations.
(§4) Protein mix or cell lysates were separated by SDS-PAGE and transferred to PVDF membrane. The membrane was blocked by blocking buffer (1×TBST containing 5% BSA) at room temperature for 1 hour. After a brief wash, the membrane was incubated with primary antibody in blocking buffer at 4° C. overnight. After incubation in primary antibody, the membrane was washed with 1×TBST three times and subsequently incubated with HRP conjugated secondary antibody in blocking buffer at room temperature for 1 hour. The membrane was again washed three times and visualized by ECL system (Thermo Scientific, Rockford, Ill.).
(§5) Since RX-5902 directly binds to Y593 phospho-p68, it was hypothesized that treatment of cells with RX-5902 would interfere with the phospho-p68/β-catenin interaction and consequently affect the expression of several growth associated genes, including p-c-Jun, c-Myc and cyclin D, which are regulated by phospho-p68/β-catenin interaction. Thus, cyclin D1 and c-Myc expression, as well as phosphorylation of c-Jun in cells treated with RX-5902, were analyzed. Cancer cell lines, SK-MEL-28 and MDA-MB-231, and normal fetal lung fibroblasts, WI-38, were used.

[6] = tested on: WI-38 cells; assay: Western blot of cyclin D1, c-Myc and p-c-Jun; type: cell-based; details: even at 70 nM
Protocol: as §2, §3, §4, §5

CYP3A4, sequence (P08684 whole entry): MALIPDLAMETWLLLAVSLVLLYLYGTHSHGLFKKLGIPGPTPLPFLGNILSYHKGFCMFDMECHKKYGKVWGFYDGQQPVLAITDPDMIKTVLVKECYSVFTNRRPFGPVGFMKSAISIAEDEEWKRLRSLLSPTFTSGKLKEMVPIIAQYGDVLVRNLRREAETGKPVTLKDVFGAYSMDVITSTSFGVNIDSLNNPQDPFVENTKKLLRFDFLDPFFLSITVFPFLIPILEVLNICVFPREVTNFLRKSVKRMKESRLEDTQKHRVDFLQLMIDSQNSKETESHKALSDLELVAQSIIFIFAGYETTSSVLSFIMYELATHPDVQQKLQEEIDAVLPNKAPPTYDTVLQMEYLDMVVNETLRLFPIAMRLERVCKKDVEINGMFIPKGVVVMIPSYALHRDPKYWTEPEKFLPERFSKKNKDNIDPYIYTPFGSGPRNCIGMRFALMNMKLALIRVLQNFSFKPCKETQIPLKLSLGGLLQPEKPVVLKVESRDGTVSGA

For `COc1cc(OC)cc(N2CCN(C(=O)Nc3nc4cc(F)ccc4nc3OC)CC2)c1` [RX-5902, 4-(3,5-dimethoxyphenyl)-N-(7-fluoro-3-methoxyquinoxalin-2-yl)piperazine-1-carboxamide], the “loss of RX-5902” value [1] was 87%, the “loss of RX-5902” value [2] was 54% and the “loss of RX-5902” value [3] was “little loss”. The “protection of ~60 kDa band (p68 RNA helicase) from protease” value [4] was “protected from the protease cleavage”, the “cyclin D1, c-Myc and p-c-Jun protein levels” value ([5]; 20 nM) was “did not change protein levels” and the “cyclin D1, c-Myc expression and c-Jun phosphorylation” value ([5]; 70 nM) was “decrease in expression of both cyclin D1 and c-Myc and a decrease in c-Jun phosphorylation”. The “cyclin D1, c-Myc expression and c-Jun phosphorylation” value [6] was “did not result in any significant change”.
